# PMC12582985, “Preparation and characterization of renal cell peptides from fetal rats for their antitumor activity” (FEBS Open Bio, 2025)
# Legend:
# MCF‐7 cells = assay: CCK‐8 cell viability assay, MCF‐7; format: cell-based, human; settings: for dynamic cytotoxicity against MCF‐7 cells: 45 μg·mL^−1, 12–72 h, CCK‐8 every 12 h, maintained at highest levels to 72 h; for viability of MCF‐7 cells: CCK‐8, 48 h, triplicate, peptides 5–45 μg·mL^−1, 5‐FU positive control 0.1–5 mM, vs negative control
# Excerpt: (§1) Human breast cancer MCF‐7 (RRID:CVCL_0031), human lung cancer A549 (RRID:CVCL_0023), human colon cancer HCT‐116 (RRID:CVCL_0291), human cervical cancer Hela (RRID:CVCL_0030), human hepatoma HepG2 (RRID:CVCL_0027), human gastric cancer SGC‐7901 (RRID:CVCL_0520) and human non‐tumor mamma gland epithelial MCF‐10A (RRID:CVCL_0598) and transformed human liver epithelial‐2 (THLE‐2) (RRID:CVCL_3803) cells were obtained from Shanghai Donghuan Biotechnology (Shanghai, China). All cell lines had been authenticated in the past 3 years and again within 4 months after completion of the experiments. All cell lines had been tested for mycoplasma contamination frequently. Their identities were characterized by short tandem repeat analysis. All of these cell lines were cultured in high glucose Dulbecco's modified Eagle's medium supplemented by 10% fetal bovine serum, 100 units·mL^−1 penicillin and 100 μg·mL^−1 streptomycin (complete culture medium).
# (§2) MCF‐7 cells (1 × 10^4 cells per well) were treated in triplicate with different doses of each type of RC extract in 96‐well plates for varying time periods. The negative control cells were treated with the diluent of physiological saline, whereas positive control cells were treated with different concentrations (0.1–5 mM) of 5‐fluorouracil (5‐FU) (Leica, Wetzlar, Germany). During the last hour of culture, each well of cells was treated with 10 μL of CCK‐8 solution. The absorbance of the supernatants of individual wells was measured at 450 nm using a microplate reader. Similarly, the effect of different synthesized RCPs (5–45 μg·mL^−1) on the viability of different types of human cancer cells was tested with CCK‐8 assays using the diluent of physiological saline containing the same concentration of dimethylsulfoxide as a negative control and the same concentrations of 5‐FU as the positive controls. Ten RCPs with a predicted strong bioactivity were synthesized by GenScript ([…]) and their purity, sequences and solubility are shown in Table 1. […] The formula used to calculate the cytotoxicity rate of each concentration of RCP was: Cytotoxicity rate (%) = (absorbance value of the control group − absorbance value of the experimental group)/absorbance value of the control group × 100%. In addition, MCF‐7 cells were treated with each type of RCP at 45 μg·mL^−1 for 12–72 h and the dynamic impact of RCP treatment on the viability of MCF‐7 cells was determined every 12 h using CCK‐8 assays.
# (§3) Data are expressed as the mean ± SEM. The data distribution was analyzed by Shapiro–Wilk test. The IC50 values of each peptide for individual cell lines were determined using the PRISM, version 8 (GraphPad Software Inc.). Briefly, all dose–response data were converted into […], which were automatically analyzed by PRISM for non‐linear regression to determine and report the IC50 and its SD for each peptide in a specific cell line. The difference among groups was analyzed by analysis of variance and post‐hoc Tukey's tests and the comparison between groups was performed using Student's t‐test and PRISM, version 8 (GraphPad Software Inc.). P < 0.05 was considered statistically significant.
# A549 cells = assay: CCK‐8 cell viability assay, A549; format: cell-based, human; settings: CCK‐8, 48 h, triplicate; peptides 5–45 μg·mL^−1; 5‐FU positive control 0.1–5 mM; vs negative control
# Excerpt: as §1, §2, §3
# HCT‐116 cells = assay: CCK‐8 cell viability assay, HCT‐116; format: cell-based, human; settings: CCK‐8, 48 h, triplicate; peptides 5–45 μg·mL^−1; 5‐FU positive control 0.1–5 mM; vs negative control
# Excerpt: as §1, §2, §3
# Hela cells = assay: CCK‐8 cell viability assay, Hela; format: cell-based, human; settings: CCK‐8, 48 h, triplicate; peptides 5–45 μg·mL^−1; 5‐FU positive control 0.1–5 mM; vs negative control
# Excerpt: as §1, §2, §3
# HepG2 cells = assay: CCK‐8 cell viability assay, HepG2; format: cell-based, human; settings: CCK‐8, 48 h, triplicate; peptides 5–45 μg·mL^−1; 5‐FU positive control 0.1–5 mM; vs negative control
# Excerpt: as §1, §2, §3
# SGC‐7901 cells = assay: CCK‐8 cell viability assay, SGC‐7901; format: cell-based, human; settings: CCK‐8, 48 h, triplicate; peptides 5–45 μg·mL^−1; 5‐FU positive control 0.1–5 mM; vs negative control
# Excerpt: as §1, §2, §3
# MCF‐10A cells = assay: CCK‐8 cell viability assay, non‐tumor MCF‐10A; format: cell-based, human; settings: CCK‐8, 48 h, triplicate; peptides 5–45 μg·mL^−1; 5‐FU positive control 0.1–5 mM; vs negative control
# Excerpt: as §1, §2, §3
# THLE‐2 cells = assay: CCK‐8 cell viability assay, non‐tumor THLE‐2; format: cell-based, human; settings: CCK‐8, 48 h, triplicate; peptides 5–45 μg·mL^−1; 5‐FU positive control 0.1–5 mM; vs negative control
# Excerpt: as §1, §2, §3
# [1] = tested on: cancer cells (MCF‐7, A549, HCT‐116, Hela, HepG2, SGC‐7901) vs non‐tumor MCF‐10A and THLE‐2 cells; assay: CCK‐8 cytotoxicity, preference for cancer cells over non‐tumor cells; format: cell-based, human; design: cytotoxicity against non‐tumor MCF‐10A and THLE‐2 cells compared with tumor cell lines: dose or concentration left out as unconfirmed; settings: for preference of cytotoxicity for cancer cells over non‐tumor cells: 5–45 μg·mL^−1, 48 h, CCK‐8; for cytotoxicity against non‐tumor MCF‐10A and THLE‐2 cells compared with tumor cell lines: 48 h, P < 0.05 or P < 0.01
# Excerpt: as §1, §2, §3
# [2] = Solubility of the synthesized peptides; format: physicochemical; settings: for aqueous solubility: in words; for Solubility: solvent given for the synthesized peptide (GenScript)
Sequence,dynamic cytotoxicity against MCF‐7 cells (MCF‐7 cells),viability of MCF‐7 cells (MCF‐7 cells),viability of A549 cells (A549 cells),viability of HCT‐116 cells (HCT‐116 cells),viability of Hela cells (Hela cells),viability of HepG2 cells (HepG2 cells),viability of SGC‐7901 cells (SGC‐7901 cells),viability of non‐tumor MCF‐10A cells (MCF‐10A cells),viability of non‐tumor THLE‐2 cells (THLE‐2 cells),preference of cytotoxicity for cancer cells over non‐tumor cells [1],cytotoxicity against non‐tumor MCF‐10A and THLE‐2 cells compared with tumor cell lines [1],aqueous solubility [2],Solubility [2]
"QQHMKFGKKCWRKVWALLYA [RCP‐1, synthesized 20‐mer renal cell peptide from Docking protein 3, trypsin digested]",increased with time from 12 h post treatment to 48 h,significantly decreased the viability,significantly decreased the viability,significantly decreased the viability,significantly decreased the viability,significantly decreased the viability,significantly decreased the viability,only treatment with the highest doses of them slightly reduced the viability,only treatment with the highest doses of them slightly reduced the viability,potent cytotoxicity preferably against cancer cells,statistically lower than tumor cell lines,low aqueous solubility,0.1% Dimethylsulfoxide
"RFFESFGDL [RCP‐7, synthesized 9‐mer renal cell peptide from GLOBIN domain‐containing protein, protamex‐digested]",–,decreased the viability,decreased the viability,decreased the viability,decreased the viability,decreased the viability,decreased the viability,decreased the viability,decreased the viability,did not preferably decrease the viability of tumor cells,–,–,0.1% Dimethylsulfoxide
"SSGCPPLPPRRGAPAGWLSH [RCP‐2, synthesized 20‐mer renal cell peptide from Brain‐derived neurotrophic factor, trypsin digested]",–,decreased the viability,decreased the viability,decreased the viability,decreased the viability,decreased the viability,decreased the viability,decreased the viability,decreased the viability,did not preferably decrease the viability of tumor cells,–,–,"Water, pH 7.0"
"VCMRVCRTWSRWCYDKRLWP [RCP‐5, synthesized 20‐mer renal cell peptide from F‐box and leucine‐rich repeat protein 19, trypsin digested]",increased with time from 12 h post treatment to 48 h,significantly decreased the viability,significantly decreased the viability,significantly decreased the viability,significantly decreased the viability,significantly decreased the viability,significantly decreased the viability,only treatment with the highest doses of them slightly reduced the viability,only treatment with the highest doses of them slightly reduced the viability,potent cytotoxicity preferably against cancer cells,statistically lower than tumor cell lines,low aqueous solubility,0.1% Dimethylsulfoxide
